Laboratory results: patent US9469645B2, “Compounds and compositions for the treatment of parasitic diseases” (Novartis AG, priority 2009, dated 2016)
Like-named read-outs stand apart in the source and are kept apart here.

Experiments:
W2 strain = experiment: parasite proliferation assay in infected red blood cells (SYBR Green I), W2 strain; format: cell-based
Excerpt: Compounds of the invention can be assayed to measure their capacity to inhibit proliferation of parasitemia in infected red blood cells. The proliferation is quantified by the addition of SYBR Green I (INVITROGEN)® dye which has a high affinity for double stranded DNA.

3D7 P. falciparum strain = experiment: parasite proliferation assay in infected red blood cells (SYBR Green I); format: cell-based, Plasmodium falciparum; settings: 3D7 strain, read-out: EC50 3D7 strain
Procedure, shortened: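 P. falciparum 3D7 grown in O+ human erythrocytes to 3–8% parasitemia and exposed to compounds. Proliferation read as the increase in parasite DNA. Detection used SYBR Green I in saponin/triton-X/EDTA lysis buffer, with overnight lysis at room temperature.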

[1] = Plasmodium falciparum, 3D7, Erythrocyte
[2] = Plasmodium falciparum, Erythrocyte

SMILES	EC50 (W2 strain; Erythrocyte) [nM]	EC50 (3D7 P. falciparum strain; [1]) [nM]	EC50 (W2 strain; [2]) [nM]	EC50 (W2 strain) [nM]	EC50 (3D7 P. falciparum strain) [nM]
O=C(CN1CCC(F)(F)CC1)N1CCn2c(nc(-c3ccc(F)cc3)c2Nc2ccc(F)cc2)C1 [Compound 62]	4740	4740	–	–	–
CCCC(=O)OC(C(=O)N1CCn2c(nc(-c3ccc(F)cc3)c2Nc2ccc(C)cc2)C1)c1ccccc1 (stereo not drawn) [Compound 269]	6	10	–	–	–
CC1CCc2nc(-c3ccc(F)cc3)c(Nc3ccc(Cl)c(F)c3)n2C1 (stereo not drawn) [Compound 754]	–	104	190	–	–
Cc1ccc(Nc2c(-c3ccc(F)cc3)nc3n2CCN(C(=O)[C@H](C)N(C)Cc2ccccc2)C3)cc1 [Compound 388]	1770	3220	–	–	–
Cc1ccc(Nc2c(-c3ccc(F)cc3)nc3n2CCN(C(=O)C(C)(C)c2ccc(Cl)cc2)C3)cc1 [Compound 174]	1480	6060	–	–	–
Cc1ccc(Nc2c(-c3cccc(F)c3)nc3n2CC(=O)NC3(C)C)cc1Cl [Compound 604]	–	40	49	–	–
Cc1ccc(Nc2c(-c3ccc(F)cc3)nc3n2CCN(C(=O)C2(N)CCC2)C3)cc1 [Compound 139]	165	160	–	–	–
CC1(C)c2nc(-c3ccc(F)cc3)c(NC3CCOCC3)n2CCN1C(=O)CN [Compound 672]	–	9840	7140	–	–
CC(C)(N)C(=O)N1CCn2c(nc(-c3ccc(F)cc3)c2NCc2ccccc2)C1 [Compound 23]	10500	> 10600	–	–	–
Cc1ccc(Nc2c(-c3ccc(F)cc3)nc3n2CCN(Cc2ccc(-c4ccncc4)cc2)C3)cc1 [Compound 184]	859	3650	–	–	–
O=C(CN1CCOCC1)N1CCn2c(nc(-c3ccc(F)cc3)c2Nc2ccc(F)cc2)C1 [Compound 41]	1790	2650	–	–	–
Cc1ccc(Nc2c(-c3ccc(F)cc3)nc3n2CCN(C(=O)C(C)(C)CO)C3)cc1 [Compound 244]	1330	2400	–	–	–
Fc1ccc(Nc2c(-c3cccc(F)c3)nc3n2CCNC3)cc1 [Compound 191]	151	170	–	–	–
Cc1ccc(Nc2c(-c3ccc(F)cc3)nc3n2CCN(C(=O)C2CCCNC2)C3)cc1 (stereo not drawn) [Compound 93]	–	–	–	1510	1670
Cc1ccc(Nc2c(-c3ccc(F)cc3)nc3n2CCN(C(=O)[C@@H]2CC(=O)N2)C3)cc1 [Compound 162]	1380	1780	–	–	–
CC1(C)c2nc(-c3ccc(F)cc3)c(Nc3ccc(C(F)(F)F)c(Cl)c3)n2CCN1C(=O)CN [Compound 658]	–	5	6	–	–
Cc1ccc(Nc2c(-c3ccc(F)cc3)nc3n2CC(C)NC3)cc1 (stereo not drawn) [Compound 329]	116	150	–	–	–
Cc1ccc(Nc2c(-c3ccc(F)cc3)nc3n2CCN(C(=O)[C@H](N)[C@H](C)O)C3)cc1 [Compound 285]	177	180	–	–	–
O=C(CO)N1CCn2c(nc(-c3ccc(F)cc3)c2Nc2ccc(F)cc2)C1 [Example 44, 1-(2-(4-fluorophenyl)-3-(4-fluorophenylamino)-5,6-dihydroimidazo[1,2-a]pyrazin-7(8H)-yl)-2-hydroxyethanone]	477	720	–	–	–
CC1(C)c2nc(-c3ccc(F)cc3)c(Nc3ccc(-c4ccccc4)cc3)n2CCN1C(=O)CN [Compound 647]	–	279	250	–	–
Cc1ccc(Nc2c(-c3ccc(F)cc3)nc3n2CCN(C(=O)[C@H](C)N)C3)cc1 [Compound 83]	131	80	–	–	–
Cc1ccc(Nc2c(-c3ccc(F)cc3)nc3n2CCN(C(=O)[C@H](O)c2ccccc2)C3)cc1 [Compound 137]	12	10	–	–	–
Cc1ccc(Nc2c(-c3ccc(F)cc3)nc3n2CCN(C(=O)[C@@H](O)CCc2ccccc2)C3)cc1 [Compound 118]	135	150	–	–	–

SMILES	EC50 (W2 strain; Erythrocyte) [nM]	EC50 (3D7 P. falciparum strain; [1]) [nM]	EC50 (W2 strain; [2]) [nM]	EC50 (W2 strain) [nM]	EC50 (3D7 P. falciparum strain) [nM]
NCC(=O)N1CCn2c(nc(-c3ccc(F)cc3)c2Nc2ccc(Cl)cc2)C1 [Compound 40]	9	10	–	–	–
Cc1ccc(Nc2c(-c3ccc(F)cc3)nc3n2CCN(C(=O)C2CCCN2)C3)cc1 (stereo not drawn) [Compound 91]	154	120	–	–	–
Cc1cc(Nc2c(-c3ccc(F)cc3)nc3n2CCN(C(=O)C(C)(C)N)C3)ccc1Cl [Compound 629]	–	17	23	–	–
Fc1ccc(Nc2c(-c3ccc(F)cc3)nc3n2CCN(Cc2ccccc2)C3)cc1 [Compound 48]	1750	1840	–	–	–
CC(C)C[C@H](O)C(=O)N1CCn2c(nc(-c3ccc(F)cc3)c2Nc2ccc(Cl)c(F)c2)C1 [Compound 358]	49	130	–	–	–
O=C(Cc1ccc(Cl)c(F)c1)N1CCn2c(nc(-c3ccc(F)cc3)c2Nc2ccc(Cl)c(F)c2)C1 [Compound 363]	1130	1750	–	–	–
CN1CCC(N2CCN(c3c(-c4ccc(F)cc4)nc4n3CCN(C(=O)CN)C4(C)C)CC2)CC1 [Compound 673]	–	8870	> 8720	–	–
CCCCCNC(=O)C[C@H](N)C(=O)N1CCn2c(nc(-c3cccc(F)c3)c2Nc2ccc(F)cc2)C1 [Compound 257]	7000	6680	–	–	–
CC1(C)c2nc(-c3ccc(F)cc3)c([S+]([O-])c3ccc(Cl)cc3)n2CCN1C(=O)CN (stereo not drawn) [Compound 724]	–	509	287	–	–
Cc1ccc(Nc2c(-c3ccc(F)cc3)nc3n2CCN(C(=O)[C@@H](N)CCCCN)C3)cc1 [Compound 156]	458	1830	–	–	–
Cc1ccc(Nc2c(-c3ccc(F)cc3)nc3n2CCN(CCN2CCn4c(nc(-c5ccc(F)cc5)c4Nc4ccc(C)cc4)C2)C3)cc1 [Compound 155]	491	2140	–	–	–
CC1(C)c2nc(-c3ccc(F)cc3)c(-c3ccc(F)c(Cl)c3)n2CCN1C(=O)CN [Compound 706]	–	252	237	–	–
Cc1ccc(Nc2c(-c3ccc(F)cc3)nc3n2CCN(C(=O)C(O)c2ccc(Br)cc2)C3)cc1 (stereo not drawn) [Compound 126]	80	100	–	–	–
CNC(C)(C)C(=O)N1CCn2c(nc(-c3ccc(F)cc3)c2Nc2ccc(Cl)c(F)c2)C1 [Compound 320]	103	170	–	–	–
CC1(C)c2nc(-c3ccc(F)cc3)c(Sc3cccc(F)c3)n2CCN1C(=O)CN [Compound 714]	–	7	4	–	–
Cc1ccc(Nc2c(-c3ccc(F)cc3)nc3n2CCN(C(=O)[C@H](C)O)C3)cc1 [Compound 81]	449	300	–	–	–
Cc1ccc(Nc2c(-c3ccc(F)cc3)nc3cnccn23)cc1 [Example 136, 2-(4-fluorophenyl)-N-p-tolylimidazo[1,2-a]pyrazin-3-amine]	2690	2020	–	–	–
COc1ccc(CN2Cc3nc(-c4ccc(F)cc4)c(Nc4ccc(Cl)c(C)c4)n3C(C)(C)C2=O)cc1 [Compound 614]	–	5020	4520	–	–
N[C@@H](Cc1ccccc1)C(=O)N1CCn2c(nc(-c3ccc(F)cc3)c2Nc2ccc(F)cc2)C1 [Compound 19]	59	70	–	–	–
NCC(=O)N1CCn2c(nc(-c3ccc(F)cc3)c2Nc2cc(F)cc(F)c2)C1 [Compound 67]	197	190	–	–	–
Cc1ccc(Nc2c(-c3ccc(F)cc3)nc3n2CCN(C(=O)C(c2ccccc2)C(C)C)C3)cc1 (stereo not drawn) [Compound 231]	70	90	–	–	–
CC(C)(C)OC(=O)N[C@@H](Cc1ccc(N)cc1)C(=O)N1CCn2c(nc(-c3cccc(F)c3)c2Nc2ccc(Cl)c(F)c2)C1 [Compound 242]	288	2090	–	–	–
